Laboratory results taken from patent publication US20220283158A1, “METHOD OF IDENTIFYING PEPTIDE ANTIGENS AND USES THEREOF” (HUMANIRAS MIRASOLE S.P.A., priority 2019, published 2022).

System: C57BL6/J 8-week-old male mice
Assay: Immunization of healthy mice with single peptides in adjuvant, echocardiography of heart functionality
Assay type: in vivo, mouse
Conditions: s.c. 100 μg peptide in CFA day 0, boost in IFA day 21; echocardiography at 2, 5 and 9 weeks; versus CTR- (only CFA)
Method: C57BL6/J 8-week-old male mice were screened at baseline for heart functionality, via echocardiography, and randomly divided into 5 experimental groups. Mice belonging to control group (CTR-, only CFA) were injected subcutaneously (immunized, but without antigen: negative control) with 100 μl Complete Freud's Adjuvant (CFA) at day 0 and boosted with 100 μl of Incomplete Freud's Adjuvant (IFA) on day 21. Mice belonging to group 3 (CTR+) were injected subcutaneously (immunized, known antigen: positive control) with 100 μg of each of the three peptides (SEQ ID NOs. 15-17) derived from beta-adrenergic receptor and listed in the Table of FIG. 4, emulsified in Complete Freud's Adjuvant (CFA) at day 0 and boosted with 100 μg of the three peptides emulsified in Incomplete Freud's Adjuvant (IFA) on day 21. Mice belonging to group 4_A (Peptide 4_A) were injected subcutaneously (immunized) with 100 μg of the peptide of SEQ ID NO. 1, derived from 14-3-3 protein, emulsified in Complete Freud's Adjuvant (CFA) at day 0 and boosted with 100 μg of each of the three peptides emulsified in Incomplete Freud's Adjuvant (IFA) on day 21. Mice belonging to group 4_B (Peptide 4_B) were injected subcutaneously (immunized) with 100 μg of the peptide of SEQ ID NO. 5, derived from Snrpd1 protein, emulsified in Complete Freud's Adjuvant (CFA) at day 0 and boosted with 100 μg of each of the three peptides emulsified in Incomplete Freud's Adjuvant (IFA) on day 21. Mice belonging to group 4_C (Peptide 4_C) were injected subcutaneously (immunized) with 100 μg of the peptide of SEQ ID NO. 14, derived from Atp5o protein, emulsified in Complete Freud's Adjuvant (CFA) at day 0 and boosted with 100 μg of each of the three peptides emulsified in Incomplete Freud's Adjuvant (IFA) on day 21. On day 0 and day 2, all the mice were intraperitoneally injected with 200 ng of Pertussis Toxin. Heart functionality of all mice was analyzed via echocardiography at 2, 5 and 9 weeks after the first subcutaneous injection. In FIG. 7, the results of echocardiography analysis of cardiac functionality parameters % FS and % EF of C57BL6/J mice immunized with the peptide of SEQ ID NO. 1 (14-3-3 protein), the peptide of SEQ ID NO. 5 (Snrpd1 protein), or the peptide of SEQ ID NO. 14 (Atp5o protein) are shown. […] Data are plotted as mean±SEM, (n=4-6). Two-way ANOVA and Tukey's multiple comparison test with matching subjects. * p<0.05, ** p<0.01, ***p<0.001.

Row | Substance | % EF | % FS
1 | Peptide 4_A: peptide of SEQ ID NO. 1, derived from 14-3-3 protein (LGLALNFSVFYYEIL; listed as Homo sapiens) | significantly reduced | significantly reduced
2 | Peptide 4_B: peptide of SEQ ID NO. 5, derived from Snrpd1 protein (EPVQLETLSIRGNNIRYFILPDSLP; listed as Homo sapiens) | significantly reduced | significantly reduced
3 | Peptide 4_C: peptide of SEQ ID NO. 14, derived from Atp5o protein (LTANLMNLLAENGRL; listed as Mus musculus) | significantly reduced | significantly reduced
